According to patent US11179376B2, “Salts of pyrazolo[1,5-a]pyridine derivative and use thereof” (SUNSHINE LAKE PHARMA CO., LTD., priority 2017, dated 2021):
Counter-ions that a name gives are not always drawn. Like-named read-outs stand apart in the source and are kept apart here.

Test: Pharmacokinetics test in beagle dogs (capsule by gavage, plasma LC/MS/MS)
Format: in vivo
Procedure: The LC/MS/MS system used in the analysis consists of an Agilent 1200 Series vacuum degasser, binary pump, well-plate autosampler, thermostated column compartment, the Agilent G6430 Triple Quadrupole Mass Spectrometer with an electrosprayionization (ESI) source. Quantitative analysis was carried out using MRM mode. The parameters for MRM transitions are in the Table A.
An Agilent XDB-C18, 2.1×30 mm, 3.5 μM column was used for the analysis. 5 μL of the samples were injected. Analysis condition: The mobile phase was 0.1% formic acid in water (A) and 0.1% formic acid in methanol (B). The flow rate was 0.4 mL/min. And the gradient of Mobile phase was in the Table B.
An ESI source was used on the LC/MS/MS spectrometer. The analysis was done in positive ion mode as appropriate and the MRM transition for each analyte was optimized using standard solution. A Capcell MP-C18 100×4.6 mm I.D., […] column (Phenomenex, Torrance, Calif., USA) was used during the analysis. The mobile phase was 5 mM ammonia acetate, 0.1% MeOH in water (A): 5 mM ammonia acetate, 0.1% MeOH in acetonitrile (B) (70/30, v/v). The flow rate was 0.6 mL/min. Column was maintained at ambient temperature. 20 μL of the samples were injected.
The blood samples (0.3 mL) were drawn at 0.25, 0.5, 1.0, 2.0, 3.0, 4.0, 6.0, 8.0, 12 and 24 hour time points or 0.083, 0.25, 0.5, 1.0, 2.0, 4.0, 6.0, 8.0 and 24 hour time points and centrifuged at 3,000 or 4000 rpm for 2 to 10 min. The plasma solutions were collected, and analyzed by LC/MS/MS as described above. The pharmacokinetic parameters were calculated according to non-compartment model using WinNonlin procedure.

[1] = capsule by gavage, dose 2.5 mg/kg, plasma

COc1ncc(-c2ccn3ncc(C#N)c3c2)cc1NS(=O)(=O)c1ccc(F)cc1F [amorphous form of mono-sodium salt, N-(5-(3-cyanopyrazolo[1,5-α]pyridin-5-yl)-2-methoxypyridin-3-yl)-2,4-difluorobenzenesulfonamide]
AUClast [1]: 7290 ng·h/mL | Cmax [1]: 2180 ng/mL | Tmax [1]: 1.33 h

COc1ncc(-c2ccn3ncc(C#N)c3c2)cc1NS(=O)(=O)c1ccc(F)cc1F [crystalline form A of mono-lithium salt, N-(5-(3-cyanopyrazolo[1,5-α]pyridin-5-yl)-2-methoxypyridin-3-yl)-2,4-difluorobenzenesulfonamide]
AUClast [1]: 4290 ng·h/mL | Cmax [1]: 1640 ng/mL | Tmax [1]: 1.5 h

COc1ncc(-c2ccn3ncc(C#N)c3c2)cc1NS(=O)(=O)c1ccc(F)cc1F [Compound of formula (I), N-(5-(3-cyanopyrazolo[1,5-α]pyridin-5-yl)-2-methoxypyridin-3-yl)-2,4-difluorobenzenesulfonamide]
AUC(0-t) (dog, po, capsule by gavage, dose 2.5 mg/kg, plasma): 1550 ng·h/mL | Cmax (dog, po, capsule by gavage, dose 2.5 mg/kg, plasma, read-out: Cmax): 482 ng/mL | Tmax (dog, po, capsule by gavage, dose 2.5 mg/kg, plasma, read-out: Tmax): 1.67 h

COc1ncc(-c2ccn3ncc(C#N)c3c2)cc1NS(=O)(=O)c1ccc(F)cc1F [crystalline form A of mono-sodium salt, N-(5-(3-cyanopyrazolo[1,5-α]pyridin-5-yl)-2-methoxypyridin-3-yl)-2,4-difluorobenzenesulfonamide]
AUClast [1]: 8730 ng·h/mL | Cmax [1]: 2820 ng/mL | Tmax [1]: 2.5 h

COc1ncc(-c2ccn3ncc(C#N)c3c2)cc1NS(=O)(=O)c1ccc(F)cc1F [crystalline form A of mono-choline salt, N-(5-(3-cyanopyrazolo[1,5-α]pyridin-5-yl)-2-methoxypyridin-3-yl)-2,4-difluorobenzenesulfonamide]
AUClast [1]: 9130 ng·h/mL | Cmax [1]: 3220 ng/mL | Tmax [1]: 1.08 h

COc1ncc(-c2ccn3ncc(C#N)c3c2)cc1NS(=O)(=O)c1ccc(F)cc1F [crystalline form B of mono-sodium salt, N-(5-(3-cyanopyrazolo[1,5-α]pyridin-5-yl)-2-methoxypyridin-3-yl)-2,4-difluorobenzenesulfonamide]
AUClast [1]: 9370 ng·h/mL | Cmax [1]: 4530 ng/mL | Tmax [1]: 0.583 h

COc1ncc(-c2ccn3ncc(C#N)c3c2)cc1NS(=O)(=O)c1ccc(F)cc1F [N-(5-(3-cyanopyrazolo[1,5-α]pyridin-5-yl)-2-methoxypyridin-3-yl)-2,4-difluorobenzenesulfonamide]
exposure and bioavailability in vivo (Cmax and AUClast much larger than those of compound of formula (I)): good exposure and bioavailability | AUClast [1]: 8420 ng·h/mL | Cmax [1]: 3050 ng/mL | Tmax [1]: 0.667 h

COc1ncc(-c2ccn3ncc(C#N)c3c2)cc1NS(=O)(=O)c1ccc(F)cc1F [crystalline form C of mono-sodium salt, N-(5-(3-cyanopyrazolo[1,5-α]pyridin-5-yl)-2-methoxypyridin-3-yl)-2,4-difluorobenzenesulfonamide]
AUClast [1]: 5700 ng·h/mL | Cmax [1]: 1410 ng/mL | Tmax [1]: 2.33 h
